Laboratory results: US8946264B2, “Pyridine derivative” (Daiichi Sankyo Company, Limited, priority 2009, dated 2015)

Columns and labels:
KK mice = assay: Hypoglycemic effect (glucose lowering rate) in diabetic KK mice; assay type: in vivo; conditions: male KK mice, diet admixture containing 0.03% of the compound, three days, plasma glucose on the 3rd day vs control group; for inhibition in vivo at 0.03 % in diet: Mus musculus, po, 72 h
From the text: Six-week-old male KK mice were purchased from CLEA Japan, Inc. and then were fed until 15 to 20 weeks old to develop diabetes. The mice were individually fed during the adaptation period and the test period, and water and feed (FR2, Funabashi Farm) were freely ingested.
At the start of the experiment, after body weight measurement, blood was collected from the tail vein of the mice into a heparin-coated glass tube and centrifuged, and then plasma was separated. The glucose level in the plasma was measured by Glucoloader GXT (A&T Corp.), and individuals having a plasma glucose level of about 350 mg/dl or more were selected. The mice were grouped, each group having 3 to 4 mice, to make the average body weight and the average plasma glucose level similar. Each compound was administered to a compound group with a diet admixture containing 0.03% of the compound. A separate group in which the mice were fed only with diet was a control group.
The experiment period (drug administration period) was three days. The grouping day was the 0th day. On the 3rd day, the body weight was measured and blood was collected from the tail vein to measure the plasma glucose level.
The glucose lowering rate was determined by the following formula. Glucose lowering rate=[(Control group plasma glucose level−Compound-administered group plasma glucose level)/Control group plasma glucose level]×100

[1] = biological target: T1, GAL4-PPARγ chimeric receptor (Homo sapiens, UniProt P37231); assay: PPARγ activation effect/modulator activity, GAL4-PPARγ luciferase reporter assay in COS-7 cells; assay type: cell-based; conditions: for Emax: COS-7, maximum luciferase activity, positive control rosiglitazone = 100%, DMSO control = 0%
T1 construct: expressed in transfected cells; host or cells: COS-7 (monkey kidney-derived cell line)
Method: A test was carried out according to the reporter assay method with reference to a report by Kliewer et al. (Journal of Biological Chemistry, 1995, Vol. 270 (22), p. 12953-12956) as a method for measuring the ability of a compound to activate PPARγ (hereinafter PPARγ activation effect/modulator activity). Commercially available reagents and kits were used according to the attached instructions. The details will be shown below. The ligand-binding domain of human PPARγ (corresponding to about 300 amino acids at the carboxy end) was bound to the DNA-binding domain of the yeast transcription factor GAL4 (corresponding to 147 amino acids at the amino end) with reference to the report by Kliewer et al. to prepare a gene expressing a GAL4-PPARγ receptor. The plasmid pM-PPARγ obtained by the above operation includes the nucleotide sequence represented by SEQ ID NO: 4 of the Sequence Listing and encodes an amino acid sequence represented by SEQ ID NO: 5 of the Sequence Listing containing amino acids 1 to 147 of the yeast transcription factor GAL4 at the amino end and containing amino acids 175 to 475 of human PPARγ and a stop codon at the carboxy end. The plasmid is a gene that can express a GAL4-PPARγ chimeric receptor in mammalian cells. The previously acquired plasmid pM-PPARγ and the plasmid pFR-Luc purchased from Stratagene Cloning Systems, Inc. were dissolved in deionised water at a concentration of 1 mg/mL each. […] COS-7 cells were transfected with 4.8 micrograms per flask of the plasmid pM-PPARγ and 19.2 μg per flask of the plasmid pFR-Luc using Lipofectamine 2000 transfection reagent (manufactured by Invitrogen Corporation), and the cells were cultured overnight. […] The test compound was dissolved in dimethyl sulfoxide at a concentration of 4 mM. The solution was serially diluted 3.3-fold with dimethyl sulfoxide to prepare solutions of the compound at concentrations up to 400 nM. Dimethyl sulfoxide was prepared for the control group. Rosiglitazone dissolved in dimethyl sulfoxide at a concentration of 4 mM was prepared for the positive control group. They were diluted 20-fold with the medium, and 5 μL of the dilution was added to the wells in which the cells were grown. […] After the addition, the cells were cultured overnight. On the following day, the medium was removed, and Luc Lite (manufactured by PerkinElmer Inc.) was prepared according to the attached document and added at 50 microliters per well. […] The amount of luminescence in each well was measured as luciferase activity using Analyst (Molecular Devices) for 0.5 second. A dose-dependent curve was drawn.

T1 sequence (P37231 with tags, fused parts or gaps): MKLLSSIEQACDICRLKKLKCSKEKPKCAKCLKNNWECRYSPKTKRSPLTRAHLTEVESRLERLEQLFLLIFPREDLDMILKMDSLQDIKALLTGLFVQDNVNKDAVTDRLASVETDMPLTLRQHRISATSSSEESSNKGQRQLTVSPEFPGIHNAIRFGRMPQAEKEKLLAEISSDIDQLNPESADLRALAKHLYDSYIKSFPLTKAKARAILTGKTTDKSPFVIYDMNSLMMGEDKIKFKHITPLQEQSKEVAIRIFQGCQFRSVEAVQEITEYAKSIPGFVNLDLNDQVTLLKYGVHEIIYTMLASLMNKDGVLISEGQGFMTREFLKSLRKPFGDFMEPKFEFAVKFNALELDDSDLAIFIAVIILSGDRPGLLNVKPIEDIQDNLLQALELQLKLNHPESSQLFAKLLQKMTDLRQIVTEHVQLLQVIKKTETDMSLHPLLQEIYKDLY

| SMILES | inhibition in vivo at 0.03 % in diet (KK mice) | Glucose lowering rate (%) (KK mice) | EC50 [1] | Emax [1] |
| --- | --- | --- | --- | --- |
| COc1cc(Oc2ccc3nc(COc4cccc(C(=O)O)c4)n(C)c3c2)ccn1 [Example 16, 3-({6-[(2-Methoxypyridin-4-yl)oxy]-1-methyl-1H-benzimidazol-2-yl}methoxy)benzoic acid] | 17% |  |  |  |
| Cc1cc(F)cnc1Oc1ccc2nc(COc3cccc(C(=O)O)c3)n(C)c2c1 [Example 8, 3-({6-[(5-Fluoro-3-methylpyridin-2-yl)oxy]-1-methyl-1H-benzimidazol-2-yl}methoxy)benzoic acid] |  | 33% |  |  |
| Cc1cnc(Oc2ccc3nc(COc4cccc(C(=O)O)c4)n(C)c3c2)c(C)c1 [Example 10, 3-({6-[(3,5-Dimethylpyridin-2-yl)oxy]-1-methyl-1H-benzimidazol-2-yl}methoxy)benzoic acid] |  | 37% |  |  |
| Cc1ccc(Oc2ccc3nc(COc4cccc(C(=O)O)c4)n(C)c3c2)nc1C [Example 4, 3-({6-[(5,6-Dimethylpyridin-2-yl)oxy]-1-methyl-1H-benzimidazol-2-yl}methoxy)benzoic acid] |  | 28% |  |  |
| COc1cc(Oc2ccc3nc(COc4cccc(C(=O)O)c4)n(C)c3c2)cc(C)n1 [Example 17, 3-({6-[(2-Methoxy-6-methylpyridin-4-yl)oxy]-1-methyl-1H-benzimidazol-2-yl}methoxy)benzoic acid] | 36% |  |  |  |
| CCc1cccnc1Oc1ccc2nc(COc3cccc(C(=O)O)c3)n(C)c2c1 [Example 2, 3-({6-[(3-Ethylpyridin-2-yl)oxy]-1-methyl-1H-benzimidazol-2-yl}methoxy)benzoic acid] | 31% |  | 180 nM | 73% |
| Cc1cnc(Oc2ccc3nc(COc4cccc(C(=O)O)c4)n(C)c3c2)c(F)c1 [Example 9, 3-({6-[(3-Fluoro-5-methylpyridin-2-yl)oxy]-1-methyl-1H-benzimidazol-2-yl}methoxy)benzoic acid] |  | 41% |  |  |
| Cn1c(COc2cccc(C(=O)O)c2)nc2ccc(Oc3cccnc3)cc21 [Compound A, reference compound] | 20% |  |  |  |
| Cn1c(COc2cccc(C(=O)O)c2)nc2ccc(Oc3ncc(Cl)cc3F)cc21 [Example 5, 3-({6-[(5-Chloro-3-fluoropyridin-2-yl)oxy]-1-methyl-1H-benzimidazol-2-yl}methoxy)benzoic acid] | 34% |  | 24 nM | 79% |
| Cc1cc(C)c(Oc2ccc3nc(COc4cccc(C(=O)O)c4)n(C)c3c2)nc1C [Example 15, 3-({1-Methyl-6-[(3,5,6-trimethylpyridin-2-yl)oxy]-1H-benzimidazol-2-yl}methoxy)benzoic acid] |  | 30% |  |  |
